Patent publication US20080027088A1, “Imidazole-Based Hmg-Coa Reductase Inhibitors” (Warner-Lambert Company, LLC, priority 2004, published 2008)

Assays:
[1] = system: ApoE KO mice fed a Western diet; assay: Plasma lipoprotein cholesterol distribution by FPLC, 4 weeks; type: in vivo; conditions: doses 0.1-1.0 mg/kg/day
Procedure: Animal experiments—Male C57BI/6J and ApoE KO mice on C57BI/6J background were obtained from the Jackson Laboratory (Bar Harbor, Me.) or Taconic (Germantown, N.Y.) (Plaque formation in ApoE KO mice is lipid-driven (A. S. Plump et al., Cell. 1992;71 (2):343-53)). Myriocin was mixed with Western diet containing 0.21% cholesterol and 21% fat. 8-12-week-old mice received 0.3 mg myriocin/kg/day for 12 weeks (Table 1). 10-12 week-old ApoE KO mice (n=8) were pre-fed a western diet for 2 weeks and mice received various concentrations of myriocin for 4 weeks in diet admix. Control groups consisted of ApoE KO mice fed normal chow or Western diet without myriocin, and normal chow-fed C57BI/6J mice. Body weight and chow feeding was measured every week to examine the food consumption. For the femoral artery cuff model, 8-10 week-old male ApoE KO mice were anethetized and the right femoral artery was dissected from its surroundings. A nonconstrictive polyethylene cuff (Portex, 0.40-mm inner diameter, 0.80-mm outer diameter, and 1.5-mm length) was placed looselyaround the right femoral artery.
Plasma lipids and serum amyloid A measurement—Mice were sacrificed by CO2 inhalation and blood was collected through cardiac puncture. Plasma concentrations of total cholesterol and triglyceride were determined enzymatically on a Cobas Mira Plus auto-analyzer using Cholesterol R1 and Triglycerides Reagent methods, respectively (Roche Diagnostics, Indiana, USA). Colormetric changes were measured at 500 nm. Lipoproteins were separated from mouse plasma by fast-protein liquid chromatography utilizing a Superose 6HR column. Cholesterol distribution among lipoproteins was determined by in-line post column analysis (K. A. Kieft, T. M. Bocan and B. R. Krause, J. Lipid Res. 1991; 32:859-66). Serum Amyloid A (SAA) protein in plasma was measured by ELISA according to the manufacturer's instructions (Biosource).
FIG. 2. […] Cholesterol distribution among lipoproteins was determined by in-line post column analysis (Kieft, K. A., T. M. A. Bocan, B. R. Krause, J. Lipid Res. 1991, 32: 859-866). […]

[2] = system: ApoE KO mice fed a Western diet; assay: Sphingomyelin in liver, plasma and aorta by LC/MS, 12 weeks; type: in vivo; conditions: 0.3 mg/kg/day
Source text: Analysis of Sphingolipids and Phospholipids by LC/MS and HPLC-Total lipids were extracted by the modified method of Bligh-Dyer extraction (E. G. Bligh and W. J. Dyer, Can. J. Med. Sci. 1959;37:911-917; and D. K. Perry, A. Bielawska and Y. A. Hannun, Methods Enzymol. 2000;312:22-31). A Micromass (Waters Corp., Milford, Mass.) Quattro Ultima tandem quadrupole mass spectrometer with a standard Z-sprayTM ion source, set to electrospray positive ionization mode, with MassLynxTM version 3.5 operating software, was used for all quantitative determinations. Source conditions were typically as follows: capillary 3.5 kV, source temperature 110 degrees C., and desolvation temperature 325 degrees C. Multipliers were set to 650 V, and the dwell time for each analyte was 100 milliseconds. Precursor-to-product ion transitions were established through direct infusion of each compound into the mass spectrometer. The following ion transitions were used for quantification: sphingomyelin (704→184 m/z), sphinganine (302→284 m/z), ceramide (566→264 m/z) and psychosine (462→282 m/z) as an internal standard. For the instrument, at a collision cell pressure of 2×10^-3 mbar argon, cone and collision voltages were as follows: sphingomyelin (45V, 25 eV), sphinganine (45V, 15 eV), ceramide (45V, 25 eV) and psychosine (45V, 25 eV). The liquid chromatography system was composed of twin Shimadzu (Columbia, Md.) LC-10ADvp HPLC pumps with a SCL-10Avp controller (flow rate 0.2 mL/minute), and a LEAP Technologies (Carrboro, N.C.) CTC PAL autosampler. For the quantitative method, the analytical column was a Phenomenex (Torrance, Calif.) Polar-RP (2.0×150 mm, 4 μm) with a […] (Torrance, Calif.) MetaGuard Polaris C8 2.0 mm direct connect (5 μm) guard column. […] Lipid extracts were analyzed by HPLC and evaporative light scattering detector to determine plasma sphingomyelin and phosphatidylcholine (PC) levels (R. Homan and M.K. Anderson, J. Chromatogr. B. Biomed. Sci. Appl. 1998;708:21-6). […] Sphingomyelin levels in liver (A), plasma (B), and aorta (C) were determined by LC/MS. […]

With `CCCCCCC(=O)CCCCCC/C=C/C[C@@H](O)[C@H](O)[C@@](N)(CO)C(=O)O` [myriocin] the HDL-cholesterol raised [1] was 2.1 fold, the “LDL-cholesterol lowered, at maximum” value [1] was 63% and the “VLDL-cholesterol lowered, at maximum” value [1] was 83%. For the same molecule, the “aorta SM levels decreased” value [2] was 20%, the “plasma SM lowered” value ([2]; Western diet-fed ApoE KO mice) was 64% and the “SM accumulation in liver” value ([2]; vs Western diet-fed ApoE KO mice) was “lowered”.
